Data: ChEMBL document CHEMBL1139820, “Synthesis of new 7-chloroquinolinyl thioureas and their biological investigation as potential antimalarial and anticancer agents” (Bioorg Med Chem Lett, 2007)

How the values were obtained:
HeLa = assay: Cytotoxicity against human HeLa cells assessed as cell survival after 7 hrs by MTT assay; format: functional, cell-based
[1] = Selectivity index, Ratio of IC50 for human HeLa cells to IC50 for Plasmodium falciparum D10; format: functional
Plasmodium falciparum = assay: Antiplasmodial activity against chloroquine-sensitive Plasmodium falciparum D10 in LDH reporter assay after 48 hrs; format: functional, organism-based; conditions: D10, 48 h

Row | Compound | IC50 (HeLa) [µM] | Ratio IC50 [1] | IC50 (Plasmodium falciparum) [µM]
1 | NCCNC(=S)Nc1ccnc2cc(Cl)ccc12 | 18 | 5.4581 | 3.3
2 | CN(C)CCCNC(=S)Nc1ccnc2cc(Cl)ccc12 | 48.5 | 40.375 | 1.2
3 | CCN(CC)CCCC(C)Nc1ccnc2cc(Cl)ccc12 (configuration not stated) [CHLOROQUINE] | 9.67 | – | –
4 | CCOC(=O)N1CCN(C(=S)Nc2ccnc3cc(Cl)ccc23)CC1 | 40.1 | – | > 2.6
5 | S=C(Nc1ccnc2cc(Cl)ccc12)N1CCN(CC2CCCCC2)CC1 | > 50 | >20.83 | > 2.4
6 | CCSc1nnc(NC(=S)Nc2ccnc3cc(Cl)ccc23)s1 | – | – | > 2.62
7 | CCN1CCN(C(=S)Nc2ccnc3cc(Cl)ccc23)CC1 | > 50 | >27.77 | 1.8
8 | S=C(Nc1ccnc2cc(Cl)ccc12)N1CCN(c2ccccc2)CC1 | 43.6 | – | > 2.61
9 | CCN(CC)CCCNC(=S)Nc1ccnc2cc(Cl)ccc12 | 49.2 | 22.355 | 2.2
10 | S=C(Nc1ccnc2cc(Cl)ccc12)N1CCNCC1 | – | – | > 3.26
11 | OCCNC(=S)Nc1ccnc2cc(Cl)ccc12 | > 50 | >14.28 | > 3.5
12 | S=C(Nc1ccnc2cc(Cl)ccc12)N1CCN(Cc2ccccc2)CC1 | 28.9 | – | > 2.5
